23 compounds from ChEMBL document CHEMBL5385875, “Tumor killing by a dietary curcumin mono-carbonyl analog that works as a selective ROS generator via TrxR inhibition” (Eur J Med Chem, 2023) can be followed below.

Activity calls are given as the source filed them. The calls are words filed in the database; no cut-off is given here.

As usually defined, the IC50 is the midpoint of a concentration-inhibition curve.

The test system of data set [1] is NCI-H460. As to the kind of experiment: Cytotoxicity against human NCI-H460 cells assessed as reduction in cell viability incubated for 48 hrs by MTT assay. It counts as functional, cell-based. As to conditions: NCI-H460, 48 h. In general terms: Formazan colour is commonly taken as a measure of viable cells.
For a further data set, the system named is A549. In words: Cytotoxicity against human A549 cells assessed as reduction in cell viability incubated for 48 hrs by MTT assay. As to conditions: A549, 48 h. It counts as functional, cell-based.
The test system of a further data set is HepG2. As to the kind of experiment: Cytotoxicity against human HepG2 cells assessed as reduction in cell viability incubated for 48 hrs by MTT assay. Format: functional, cell-based. As to conditions: HepG2, 48 h.
The next data set relates to HT-1080. In words: Cytotoxicity against human HT-1080 cells assessed as reduction in cell viability incubated for 48 hrs by MTT assay. Format: functional, cell-based. As to conditions: HT-1080, 48 h.
A short description of data set [2]: Cytotoxicity against human MRC5 cells assessed as reduction in cell viability incubated for 48 hrs by MTT assay. It counts as toxicity, cell-based.
The nature of data set [3]: Selectivity index, ratio of IC50 for human MRC5 cells to IC50 for human NCI-H460 cells. Format: toxicity. The following applies: MRC5 cells versus NCI-H460 cells, read-out: Ratio IC50.
The subject of data set [4] is NCI-H460. In words: Induction of intracellular ROS accumulation in human NCI-H460 cells at 2 uM measured after 6 hrs by DCFH-DA dye based fluorescence assay. Format: functional, cell-based.
In data set [5] the test system is NCI-H460. In words: Induction of ROS accumulation in human NCI-H460 cells assessed as reduction in GSH levels by measuring yellow green fluorescence incubated for 9 hrs by fluorescence microscope based analysis. It counts as functional, cell-based.
For data set [6], the target named is Thioredoxin reductase (Homo sapiens) (UniProt Q16881+Q9NNW7+Q86VQ6). In words: Inhibition of TrxR in human NCI-H460 cells at 2 uM measured after 6 hrs by fluorescence microscopy based analysis. It counts as cell-based.

For `O=C1/C(=C/c2ccc(C(F)(F)F)cc2)CCC/C1=C\c1ccc(C(F)(F)F)cc1`, the IC50 with NCI-H460 [1] was 14.4 µM; in the data set with A549, 2.97 µM; with HepG2, greater than 100 µM; in the data set with HT-1080, 7.2 µM. Besides, in data set [2], the IC50 at 48 h came out at 47.7 µM. Moreover, the selectivity ratio in data set [3] turned out to be 3.32.

Turning to `COc1ccccc1/C=C1\CN(C)C/C(=C\c2ccccc2OC)C1=O`, the half-inhibitory concentration (IC50) in the data set with NCI-H460 [1] was determined as 8.39 µM; with A549 it was 6.81 µM; with HepG2 it was 10.7 µM; in the data set on HT-1080 it was 9.62 µM. For the same compound, in [2], the concentration for half-maximal inhibition (IC50) at 48 h was 17 µM. Further, the selectivity ratio in [3] was 2.03.

With `COc1cccc(/C=C2\CCC/C(=C\c3cccc(OC)c3)C2=O)c1`, the IC50 in the data set on NCI-H460 [1] came to 16.4 µM; in the data set with A549, 11.6 µM; in the data set on HepG2, 14 µM; in the data set on HT-1080 it was 22.2 µM. The half-maximal inhibitory concentration (IC50) at 48 h in data set [2] was found to be 46 µM. Further, the selectivity ratio in data set [3] was determined as 2.81.

Take `CN1C/C(=C\c2ccccc2)C(=O)/C(=C/c2ccccc2)C1`: the IC50 came out at 26.9 µM with NCI-H460 [1], 11.3 µM with A549, 10.6 µM in the data set on HepG2 and 3.82 µM in the data set on HT-1080. In data set [2], the IC50 at 48 h worked out at 31.3 µM. In addition, the selectivity ratio in [3] amounted to 1.16.

Turning to `COc1ccc(/C=C2\CN(C)C/C(=C\c3ccc(OC)cc3)C2=O)cc1`, the half-maximal inhibitory concentration (IC50) in the data set with NCI-H460 [1], with A549, with HepG2 and with HT-1080 was greater than 100 µM throughout. Moreover, in data set [2], the IC50 at 48 h is greater than 100 µM.

Turning to `CN1C/C(=C\c2ccccc2C(F)(F)F)C(=O)/C(=C/c2ccccc2C(F)(F)F)C1`, the concentration for half-maximal inhibition (IC50) is greater than 100 µM with NCI-H460 [1], greater than 100 µM in the data set with A549, greater than 100 µM in the data set with HepG2 and 49.5 µM in the data set on HT-1080. Further, the IC50 at 48 h in data set [2] was greater than 100 µM.

As to `O=C1/C(=C/c2ccc(C(F)(F)F)cc2)CNC/C1=C\c1ccc(C(F)(F)F)cc1`, the 50% inhibitory concentration (IC50) came to 7.11 µM in the data set with NCI-H460 [1], 2.02 µM in the data set with A549, 37.1 µM in the data set on HepG2 and 5.48 µM in the data set with HT-1080. In addition, the IC50 at 48 h in data set [2] is 8.65 µM. Besides, the selectivity ratio in data set [3] was determined as 1.22. Also, the outcome in the data set on NCI-H460 [4] was inactive.

Consider `O=C1/C(=C/c2cccc(C(F)(F)F)c2)CCC/C1=C\c1cccc(C(F)(F)F)c1`, for which the half-maximal inhibitory concentration (IC50) with NCI-H460 [1] was 6.06 µM; in the data set on A549 it was 3.96 µM; in the data set on HepG2, 3.54 µM; with HT-1080 it was 6.34 µM. In addition, the concentration for half-maximal inhibition (IC50) at 48 h in data set [2] was found to be 21.9 µM. The selectivity ratio in data set [3] is 3.62.

Take `COc1ccc(/C=C2\CCC/C(=C\c3ccc(OC)cc3)C2=O)cc1`: the 50% inhibitory concentration (IC50) in the data set on NCI-H460 [1], with A549, with HepG2 and with HT-1080 was greater than 100 µM in each case. The 50% inhibitory concentration (IC50) at 48 h in [2] was greater than 100 µM.

`O=C1/C(=C/c2ccccc2)CNC/C1=C\c1ccccc1`: the IC50 with NCI-H460 [1] was found to be 2.34 µM; in the data set on A549, 7.36 µM; in the data set on HepG2 it was 1.38 µM; in the data set with HT-1080 it was 5.41 µM. The IC50 at 48 h in [2] is 4.85 µM. Further, the selectivity ratio in data set [3] came out at 2.07. In addition, the outcome in the data set with NCI-H460 [4] and with NCI-H460 [5] was inactive. For the same compound, the inhibition result in [6] is “inactive”.

`O=C1/C(=C/c2ccccc2C(F)(F)F)CCC/C1=C\c1ccccc1C(F)(F)F`: the IC50 in the data set on NCI-H460 [1], in the data set on A549, in the data set with HepG2 and in the data set on HT-1080 was greater than 100 µM in each case. In addition, the IC50 at 48 h in [2] is greater than 100 µM.

For `O=C1/C(=C/c2ccccc2)CCC/C1=C\c1ccccc1` [2,6-DIBENZYLIDENECYCLOHEXANONE], the half-maximal inhibitory concentration (IC50) in the data set with NCI-H460 [1] was determined as 50.5 µM; in the data set with A549, 26.3 µM; in the data set with HepG2, 28.5 µM; in the data set with HT-1080, 32.6 µM. Besides, the IC50 at 48 h in data set [2] was greater than 100 µM.

Turning to `COc1ccccc1/C=C1\CCC/C(=C\c2ccccc2OC)C1=O`, the IC50 in the data set with NCI-H460 [1] was 79.8 µM; with A549, 66.8 µM; in the data set with HepG2, 60.1 µM; in the data set with HT-1080, greater than 100 µM. Besides, the half-inhibitory concentration (IC50) at 48 h in [2] was greater than 100 µM.

Consider `CC[C@@]1(O)C(=O)OCc2c1cc1n(c2=O)Cc2cc3ccccc3nc2-1` [CAMPTOTHECIN], for which the IC50 in the data set with NCI-H460 [1] was 0.79 µM. Besides, the IC50 at 48 h in data set [2] came out at 9.02 µM. Further, in data set [3], the selectivity ratio was found to be 11.4.

As to `O=C1/C(=C/c2ccccc2C(F)(F)F)CNC/C1=C\c1ccccc1C(F)(F)F`, the 50% inhibitory concentration (IC50) in the data set on NCI-H460 [1], in the data set on A549, in the data set on HepG2 and with HT-1080 was greater than 100 µM throughout. Besides, the IC50 at 48 h in [2] is greater than 100 µM. Besides, the outcome in the data set with NCI-H460 [4] was inactive.

Consider `CN1C/C(=C\c2ccc(C(F)(F)F)cc2)C(=O)/C(=C/c2ccc(C(F)(F)F)cc2)C1`, for which the IC50 was found to be 2.2 µM in the data set with NCI-H460 [1], 1.58 µM in the data set with A549, 1.01 µM in the data set with HepG2 and 2.03 µM with HT-1080. Further, in data set [2], the half-inhibitory concentration (IC50) at 48 h is 4.76 µM. In addition, the selectivity ratio in [3] stood at 2.16.

For `COc1ccc(/C=C2\CNC/C(=C\c3ccc(OC)cc3)C2=O)cc1`, the IC50 with NCI-H460 [1], in the data set on A549, in the data set on HepG2 and in the data set on HT-1080 was greater than 100 µM each time. In addition, the IC50 at 48 h in data set [2] is greater than 100 µM. Also, the result in the data set on NCI-H460 [4] was inactive.

Turning to `COc1cccc(/C=C2\CNC/C(=C\c3cccc(OC)c3)C2=O)c1`, the 50% inhibitory concentration (IC50) stood at 7.93 µM in the data set with NCI-H460 [1], 14.3 µM with A549, 5.19 µM in the data set with HepG2 and 20 µM in the data set on HT-1080. In data set [2], the IC50 at 48 h was determined as 9.11 µM. In addition, in data set [3], the selectivity ratio was 1.23. In addition, the outcome with NCI-H460 [4] was inactive.

In the case of `COc1cc(/C=C/C(=O)CC(=O)/C=C/c2ccc(O)c(OC)c2)ccc1O` [CURCUMIN], the IC50 in the data set with A549 is 44.8 µM; in the data set with HepG2 it was 22.8 µM; with HT-1080, 21.9 µM. Besides, the IC50 at 48 h in data set [2] came out at 51.2 µM. Besides, in data set [3], the selectivity ratio amounted to 2.52. Moreover, the result in the data set with NCI-H460 [4] and with NCI-H460 [5] was inactive. Moreover, the inhibition entry in data set [6] was “inactive”.

With `O=c1[nH]cc(F)c(=O)[nH]1` [FLUOROURACIL], the half-maximal inhibitory concentration (IC50) with NCI-H460 [1] is 24.8 µM. In data set [2], the IC50 at 48 h worked out at 246 µM. Besides, the selectivity ratio in [3] was found to be 9.89.

In the case of `COc1cccc(/C=C2\CN(C)C/C(=C\c3cccc(OC)c3)C2=O)c1`, the IC50 was 5.68 µM in the data set with NCI-H460 [1], 1.18 µM with A549, 1.36 µM in the data set with HepG2 and 1.99 µM in the data set with HT-1080. The IC50 at 48 h in [2] turned out to be 13.4 µM. The selectivity ratio in data set [3] is 2.37.

For the compound `CN1C/C(=C\c2cccc(C(F)(F)F)c2)C(=O)/C(=C/c2cccc(C(F)(F)F)c2)C1`, the IC50 in the data set on NCI-H460 [1] was 2.94 µM; in the data set with A549, 1.08 µM; in the data set on HepG2, 1.12 µM; in the data set with HT-1080, 3.86 µM. Further, the half-inhibitory concentration (IC50) at 48 h in [2] was determined as 9.25 µM. The selectivity ratio in data set [3] was 3.15.

Take `COc1ccccc1/C=C1\CNC/C(=C\c2ccccc2OC)C1=O`: the half-inhibitory concentration (IC50) in the data set on NCI-H460 [1] is 2.88 µM; in the data set with A549, 3.32 µM; in the data set on HepG2, 1.93 µM; in the data set on HT-1080, 35.9 µM. Further, the half-maximal inhibitory concentration (IC50) at 48 h in data set [2] came to 3.67 µM. Moreover, the selectivity ratio in data set [3] turned out to be 1.27. In addition, in the data set on NCI-H460 [4], the outcome was inactive.
